Measured values reported in patent US20190030114A1, “ISOFORM-SPECIFIC CALPAIN INHIBITORS, METHODS OF IDENTIFICATION, AND USES THEREOF” (WESTERN UNIVERSITY OF HEALTH SCIENCES, priority 2014, published 2019).
Entries after “also recorded” stand apart in the source; their conditions may differ. Like-named read-outs stand apart in the source and are kept apart here. Residues, ends and D or L forms follow the SMILES beside them. *: point of attachment. Cbz = O=C(OCc1ccccc1)*; CH2F = FC*

Assays:
[1] = test system: Akt and ERK; assay: Akt and ERK phosphorylation in cultured cortical neurons, immunoblot; format: cell-based; conditions: for Akt and ERK phosphorylation (pAkt/Akt, pERK/ERK): peptide 1.5 μM, 30 min
Excerpt: Pre-treatment with Calpain-2 C-terminal peptide had no effect on Akt and ERK levels. Columns represent means±S.E.M. n=3-6. *p<0.05. One-way ANOVA followed by Bonferroni test.

[2] = molecular target: T1, calpain-2 (Homo sapiens, UniProt P17655); assay: in vitro calpain-2 inhibition, succinic-Leu-Tyr-AMC substrate; format: biochemical; conditions: for Ki: Example 13, read-out: Ki Calpain-2; for Ki / IC50: n = 3-4
T1 sequence (P17655 1-700): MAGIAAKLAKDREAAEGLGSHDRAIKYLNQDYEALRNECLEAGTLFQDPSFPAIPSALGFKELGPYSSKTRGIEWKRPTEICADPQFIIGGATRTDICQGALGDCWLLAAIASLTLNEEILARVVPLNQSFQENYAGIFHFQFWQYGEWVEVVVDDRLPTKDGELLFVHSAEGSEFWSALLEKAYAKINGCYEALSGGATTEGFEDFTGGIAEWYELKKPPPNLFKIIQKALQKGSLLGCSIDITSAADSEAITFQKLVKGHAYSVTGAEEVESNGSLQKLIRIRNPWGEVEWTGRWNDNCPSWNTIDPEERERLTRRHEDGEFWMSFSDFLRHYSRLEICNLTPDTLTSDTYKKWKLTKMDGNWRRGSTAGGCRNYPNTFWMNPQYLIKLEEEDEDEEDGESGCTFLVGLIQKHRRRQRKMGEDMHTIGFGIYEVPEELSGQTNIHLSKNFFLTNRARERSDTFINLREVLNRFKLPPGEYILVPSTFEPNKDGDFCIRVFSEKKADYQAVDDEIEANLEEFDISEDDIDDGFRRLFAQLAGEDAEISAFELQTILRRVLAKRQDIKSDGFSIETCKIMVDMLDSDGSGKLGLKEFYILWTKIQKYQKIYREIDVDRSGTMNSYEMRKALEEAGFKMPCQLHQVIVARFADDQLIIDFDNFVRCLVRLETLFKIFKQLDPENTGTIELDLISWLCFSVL
T1 sequence (P04632 1-268 partner): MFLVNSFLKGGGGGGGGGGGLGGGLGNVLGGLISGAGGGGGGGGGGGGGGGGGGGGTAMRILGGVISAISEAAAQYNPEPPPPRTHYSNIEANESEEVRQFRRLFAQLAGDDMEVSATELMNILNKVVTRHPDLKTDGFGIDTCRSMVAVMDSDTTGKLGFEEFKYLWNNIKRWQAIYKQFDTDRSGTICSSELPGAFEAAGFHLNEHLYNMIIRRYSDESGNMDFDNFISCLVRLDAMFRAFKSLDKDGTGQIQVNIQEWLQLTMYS
Description: (§1) Formula 1, where chiral center 1 is the L-form and chiral center 2 is a racemic mixture of D- and L- in this example was introduced at various concentrations (from 1 nM to 10 μM) into an in vitro mix comprising succinic-Leu-Tyr-AMC and calpain-1 or calpain-2 (Sasaki et al, 1984), and the kinetics of the loss of fluorescence were determined for each of the calpains (Powers et al, 2000). […] Therefore, the assessment of selectivity described herein was different than the prior teaching.
(§2) Formula 1A, where chiral center 1 is the S-form and chiral center 2 is the S-form was separated from the S-R-form (Formula 1B) using methods that are well-known methods for separating diastereoisomers. Formula 1A, which is also referred to herein as compound 18A, in this example was introduced at various concentrations into an in vitro mix comprising succinic-Leu-Tyr-AMC and μ-calpain or m-calpain (Sasaki et al, 1984), and the kinetics of the loss of fluorescence were determined for each of the calpains.

[3] = molecular target: T2, calpain-1 (Homo sapiens, UniProt P07384); assay: in vitro calpain-1 inhibition, succinic-Leu-Tyr-AMC substrate; format: biochemical; conditions: n = 3-5; for Ki: Example 13, read-out: Ki Calpain-1
T2 sequence (P07384 1-714): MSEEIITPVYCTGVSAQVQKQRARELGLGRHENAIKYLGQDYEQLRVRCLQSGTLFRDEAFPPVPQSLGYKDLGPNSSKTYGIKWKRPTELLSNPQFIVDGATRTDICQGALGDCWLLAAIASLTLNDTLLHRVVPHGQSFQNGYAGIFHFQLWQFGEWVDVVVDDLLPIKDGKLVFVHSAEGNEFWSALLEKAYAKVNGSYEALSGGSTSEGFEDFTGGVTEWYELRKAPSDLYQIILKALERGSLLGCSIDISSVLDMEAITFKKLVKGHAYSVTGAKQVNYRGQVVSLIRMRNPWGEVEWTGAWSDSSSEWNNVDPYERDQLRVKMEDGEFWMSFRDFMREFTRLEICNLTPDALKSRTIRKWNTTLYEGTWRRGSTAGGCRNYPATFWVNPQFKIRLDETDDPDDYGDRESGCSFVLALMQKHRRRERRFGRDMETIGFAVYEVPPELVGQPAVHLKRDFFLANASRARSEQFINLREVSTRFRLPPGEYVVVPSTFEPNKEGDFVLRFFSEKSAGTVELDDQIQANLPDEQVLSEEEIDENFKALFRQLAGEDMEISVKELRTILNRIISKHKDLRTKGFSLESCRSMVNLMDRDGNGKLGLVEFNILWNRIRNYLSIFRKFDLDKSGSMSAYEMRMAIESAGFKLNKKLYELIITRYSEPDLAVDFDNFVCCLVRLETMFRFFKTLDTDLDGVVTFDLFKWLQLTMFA
T2 sequence (P04632 1-268 partner): T1 sequence (P04632 1-268 partner)
Description: as §1, §2

[4] = test system: cultured cortical neurons; assay: neuroprotection against starvation and oxidative stress (H2O2); format: cell-based; conditions: 1.5 μM
Excerpt: Columns represent means±S.E.M. n=4. *p<0.05; **p<0.01; ***p<0.001. One-way ANOVA followed by Bonferroni test.

[5] = test system: stratum radiatum of field CA1 in acute rat hippocampal slices; assay: field EPSP recording, TBS-induced LTP in acute rat hippocampal slices; format: cell-based
Description: Results are expressed as percent of the average values over a 10 min baseline period and are means±S.E.M. of the indicated number of experiments.
FIG. 3A: Field recording of excitatory postsynaptic potentials (EPSPs) performed in stratum radiatum of field CA1 in acute rat hippocampal slices in the presence or absence of 200 nM of the calpain-2 selective inhibitor, Formula I, (mCalp-I in the drawing). Preincubation with mCalp-I enhances LTP. Results are expressed as percent of the average values over a 10 min baseline period and are means±S.E.M. of the indicated number of experiments.
Results are expressed as percent of the average values over the 10 min baseline period and are means±S.E.M. of the indicated number of experiments.
Generic calpain inhibitors block LTP when administered before LTP induction. Field recording of excitatory postsynaptic potentials (EPSPs; FIG. 2) was performed in stratum radiatum of field CA1 in acute rat hippocampal slices.
A calpain 2-selective inhibitor enhances LTP. […]

[6] = molecular target: T2, calpain-1; conditions: cited from earlier work
[7] = molecular target: T1, calpain-2; conditions: cited from earlier work
[8] = test system: cultured cortical neurons; assay: Bic- and 4-AP-induced neuroprotection against starvation, Hoechst staining; format: cell-based; conditions: mCalp-I 200 nM
Excerpt: Neuronal death was observed and quantified by Hoechst staining. 300-500 neurons were counted for each group in three to 6 independent experiments. *p<0.05; ns, no significant difference; one-way ANOVA followed by Bonferroni test. n=3-6. Error Bar indicates SEM
Neuronal death was observed and quantified by Hoechst staining. 300-500 neurons were counted for each group in three to 6 independent experiments. *p<0.05; ns, no significant difference; one-way ANOVA followed by Bonferroni test. n=3-6. Error Bar indicates SEM (FIG. 6).

Calpain-2 C-terminal peptide: calpain-2 PDZ-binding domain specific peptide: TIQLDLISWLSFSVL, or fragment or modification thereof
Akt and ERK phosphorylation (pAkt/Akt, pERK/ERK) [1]: no effect

CC[C@@H](NC(=O)[C@H](CC(C)C)NC(=O)OCc1ccccc1)C(=O)C(=O)NCc1cc(OC)cc(OC)c1 [Formula 1B]
Ratio KiCalpain-1/KiCalpain-2 [2]: 34
Ki [2]: 15600 ± 9200 nM
IC50 [2]: 19400 nM
Ki [3]: 514000 ± 151000 nM
IC50 [3]: 569000 nM

CC[C@H](NC(=O)[C@H](CC(C)C)NC(=O)OCc1ccccc1)C(=O)C(=O)NCc1cc(OC)cc(OC)c1 [Formula 1A]
Ratio KiCalpain-1/KiCalpain-2 [2]: 23.2
Ki [2]: 7.8 ± 2.5 nM
difference in activity between the two diasteriomers, inhibition of calpain-2 ([2]; Formula 1A versus S-R-form): 2000 fold
IC50 [2]: 193 nM
Ki [3]: 181 ± 73 nM
IC50 [3]: 379 nM

Calpain-1 C-terminal peptide: calpain-1 PDZ-binding domain specific peptide: VTFDLFKWLQLTMFA, or fragment or modification thereof
Akt and ERK phosphorylation (pAkt/Akt, pERK/ERK) [1]: increased Akt and ERK phosphorylation
neuroprotection against H2O2 insult [4]: neuroprotection against H2O2 insult
neuroprotection against starvation [4]: neuroprotection against starvation
LTP in rat hippocampal slices on un-scaffolding calpain-1 ([5]; calpain-1 PDZ-peptide): greater LTP

CCCNC(=O)C(=O)C(Cc1ccccc1)NC(=O)C(CC(C)C)NC(=O)OCc1ccccc1 (stereo not drawn) [Formula XII, z-Leu-Phe-CONH-nPr]
Ki ([6]; Li et al, 1996, read-out: Ki for calpain-1 (μ-calpain), literature): 50 nM
Ki ([6]; U.S. Pat. No. 6,235,929, column 14, Table I, read-out: Ki for calpain-1): 15000 nM
Ki ([7]; Li et al, 1996, read-out: Ki for calpain-2 (m-calpain), literature): 350 nM

CC(C)C[C@H](NC(=O)OCc1ccccc1)C(=O)N[C@@H](CC(C)C)C(=O)N[C@@H](Cc1ccc(O)cc1)C(=O)CF [Calpain inhibitor IV, carboxybenzyl-Leu-Leu-Tyr-CH2-F] (Cbz-Leu-Leu-Tyr-CH2F)
selectivity among calpains ([6]; Powers et al, 2002, effect appears to vary with cell-type): some selectivity for calpain-1

CC(C)C(NC(=O)OCc1ccccc1)C(=O)NC(C=O)Cc1ccccc1 (stereo not drawn) [Calpain inhibitor III, Z-Val-Phe-CHO, reference compound] (Cbz-Val-Phe-aldehyde; configuration not given here)
effect of calpain-1 peptide on Akt and ERK ([1]; pre-treatment 10 μM): blocks the effect of calpain-1 peptide on Akt and ERK
blocked Bic- and 4-AP-induced neuroprotection against starvation [8]: blocked
LTP after theta-burst stimulation ([5]; 10 μM added prior to TBS): blocks LTP; also recorded: prevented the formation of LTP
short-term potentiation (increase in fEPSPs that follows TBS) ([5]; 10 μM added prior to TBS): did not block short-term potentiation
Ki ([7]; stated for generic inhibitor, source not given, read-out: Ki for calpain-2): ~8 nM
